In patent US12559863B2, “Macrocyclic modulators of disease associated protein misfolding and aggregation” (RESQ BIOTECH, priority 2017, dated 2026):
Where a SMILES comes first, the peptide text is derived from it.

Experiments:
[1] = tested on: Aβ-exposed neuronal cells; test: Phase-contrast microscopy of Aβ-exposed neuronal cells; format: cell-based, mouse; settings: pre-aggregated Aβ
Method: Solutions of synthetic Aβ40 or Aβ42 (10 μM) in PBS, preincubated at 37° C. (3 d for Aβ40 solutions and 1 d for Aβ42 solutions) in the presence or absence of synthetic cyclic peptides (1:1 and 2:1 ratio of peptides:Aβ), were diluted with fresh medium and transferred into wells at a 1 μM final Aβ concentration. Cell viability was determined using the MTT assay. MTT (3-[4,5-dimethylthiazol-2-yl]-2,5-diphenyl tetrazolium bromide) was purchased from Applichem (Germany). After 24 h of exposure to Aβ solutions, 100 μL of a 0.5 mg/mL stock solution of MTT in Neurobasal-A was added to each well of primary hippocampal neurons followed by a 3 h incubation at 37° C., while 100 μL of a 1 mg/mL stock solution of MTT in DMEM complete medium was added to each well of U87MG cells followed by a 4 h incubation at 37° C. The medium was then removed and the cells were diluted in DMSO. The relative formazan concentration was measured by determination of the absorbance at 540 nm using a plate reader (Tecan, Austria). Results were expressed as the percentage of MTT reduction, assuming that the absorbance of control (untreated) cells was 100%, and represent the mean of three independent experiments with six replicate wells for each condition. Induced cell death was also qualitatively examined by phase-contrast microscopy (Carl Zeiss, Axiovert 25 CFL, Germany) using the above solutions. […]

[2] = tested on: C. elegans strain CL2331 (Aβ3-42-GFP); test: Confocal microscopy of Aβ3-42-GFP deposits in C. elegans CL2331; format: in vivo, Caenorhabditis elegans; settings: 10 μM AβC5-34 or 5 μM AβC5-116
Method: We followed standard procedures for C. elegans strains maintenance at 16° C. The following strains were used: CL2179: dvIs179 [myo-3p::GFP::3′UTR(long)+rol-6(su1006)] (available on the world wide web at: cgc.cbs.umn.edu/strain.php?id=26134); CL2331: dvIs37 [myo-3p::GFP::Aβ(3-42)+rol-6(su1006)] (available on the world wide web at: cgc.cbs.umn.edu/strain.php?id=26135); CL4176: smg-1(cc546) I; dvIs27 [myo-3::Aβ(1-42)-let 3′UTR(pAF29); pRF4 (rol-6(su1006)] (available on the world wide web at: cgc.cbs.umn.edu/strain.php?id=7663).
For Aβ3-42 deposit measurements, synchronized (at the L4 larval stage) CL2331 and CL2179 (control strain) animals exposed to solvent (0.26% DMSO), 10 μM AβC5-34 or 5 μM AβC5-116 and grown at 20° C. (to induce aggregation) until day 2 of adulthood were collected. Animals were mounted onto 2% agarose pads on glass slides, anesthetized with 10 mM levamisole and observed at RT using a Leica TCS SPE confocal laser scanning microscope (Leica Lasertechnik GmbH, Germany). The LAS AF software was used for image acquisition. At least twenty animals/condition in three independent experiments were processed. Images of whole worms and focused images in the posterior area of nematodes were acquired with 10×0.45 and 20×0.70 numerical aperture, respectively.

Aβ42 = target: T1, Aβ42 (Homo sapiens, UniProt P05067); test: Transmission electron microscopy of Aβ42; format: biochemical; settings: 50 μM Aβ42 with 100 μM peptide, 30-d aged
T1 construct: one of the secondary products yields a 42-amino-acid-long peptide (Aβ42); purchased Eurogentec, Belgium; host or cells: chemical synthesis
Method: For TEM analysis, the 30-d aged 50 μM CD solutions of Aβ42 (with 100 μM of the selected peptides or without) was mixed well by pipetting. 2 μL of this solution were placed in a carbon-coated film on 200-mesh copper grids (Agar Scientific, UK) for 5 min. After adsorption, grids were washed in deionized water and negatively stained by applying a 2-μl drop of freshly prepared 1% (w/v) uranyl acetate (Sigma-Aldrich, USA) in Milli-Q water for 5 min. Excess fluid was blotted off, and grids were washed in deionized water and dried in air. Images were recorded using a FEI CM20 electron microscope (FEI, USA) with a Gatan GIF200 imaging filter (Gatan, USA), equipped with a Peltier-cooled slow-scan CCD camera.

[3] = tested on: glioblastoma cell line U87MG; format: cell-based, human; settings: for Aβ-induced toxicity in U87MG: MTT
Method: The utilized U87MG cells (human glioblastoma-astrocytoma, epithelial-like cell line) were kind a gift from Dr. Maria Paravatou-Petsotas, Radiobiology Laboratory, Institute of Nuclear & Radiological Sciences & Technology, Energy & Safety, NCSR “Demokritos”. The utilized media/agents for U87MG cell cultures were obtained from Biochrom AG (Germany) and PAA Laboratories (USA). U87MG cells were grown in Dulbecco's modified Eagle medium (DMEM), supplemented with 10% fetal bovine serum (FBS), 2.5 mM L-glutamine, 1% penicillin/streptomycin at 37° C. and 5% CO2. For MTT cytotoxicity studies, cells were plated at a density of 2×10^4 cells per well in 96-well plates and incubated at 37° C. for 24 h to allow cells to attach. The medium was subsequently removed and cells were rendered quiescent by incubation in serum-free medium for 24 h. For cell viability measurements cells were subsequently treated with the indicated concentrations of Aβ in the presence or absence of synthetic peptides, as described in Materials and Methods.
Solutions of synthetic Aβ40 or Aβ42 (10 μM) in PBS, preincubated at 37° C. (3 d for Aβ40 solutions and 1 d for Aβ42 solutions) in the presence or absence of synthetic cyclic peptides (1:1 and 2:1 ratio of peptides:Aβ), were diluted with fresh medium and transferred into wells at a 1 μM final Aβ concentration. Cell viability was determined using the MTT assay. MTT (3-[4,5-dimethylthiazol-2-yl]-2,5-diphenyl tetrazolium bromide) was purchased from Applichem (Germany). After 24 h of exposure to Aβ solutions, 100 μL of a 0.5 mg/mL stock solution of MTT in Neurobasal-A was added to each well of primary hippocampal neurons followed by a 3 h incubation at 37° C., while 100 μL of a 1 mg/mL stock solution of MTT in DMEM complete medium was added to each well of U87MG cells followed by a 4 h incubation at 37° C. The medium was then removed and the cells were diluted in DMSO. The relative formazan concentration was measured by determination of the absorbance at 540 nm using a plate reader (Tecan, Austria). Results were expressed as the percentage of MTT reduction, assuming that the absorbance of control (untreated) cells was 100%, and represent the mean of three independent experiments with six replicate wells for each condition. Induced cell death was also qualitatively examined by phase-contrast microscopy (Carl Zeiss, Axiovert 25 CFL, Germany) using the above solutions. In each run, the effect of solutions of plain synthetic peptides and plain Aβ40 or Aβ42 was independently checked to serve as internal control.

T1 sequence (P05067 672-713 limits assumed): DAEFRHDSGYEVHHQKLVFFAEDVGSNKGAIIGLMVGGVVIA

C[C@@H]1NC(=O)[C@H](CO)NC(=O)[C@H]([C@@H](C)O)NC(=O)[C@@H]2CCCN2C(=O)[C@H](CO)NC1=O [AβC5-34, cyclo-SASPT] (cyclo(ASPTS))
morphology of Aβ-exposed neuronal cells [1]: marked recovery of the Aβ-induced alterations
Aβ deposits, CL2331 [2]: significant reduction of Aβ deposits
Aβ42 fibrils by TEM (Aβ42): notably fewer, shorter and ill-developed
growth-promoting effects or cytotoxicity of peptide on its own [3]: did not exhibit general growth-promoting effects or considerable cytotoxicity
Aβ-induced toxicity in U87MG [3]: toxicity-suppressing effects

C[C@@H]1NC(=O)[C@H]([C@@H](C)O)NC(=O)[C@H](CCCNC(=N)N)NC(=O)[C@H](CC(=O)O)NC(=O)[C@H](Cc2ccccc2)NC1=O [AβC5-116, cyclo-TAFDR] (cyclo(AFDRT))
morphology of Aβ-exposed neuronal cells [1]: marked recovery of the Aβ-induced alterations
Aβ deposits, CL2331 [2]: significant reduction of Aβ deposits
Aβ42 fibrils by TEM (Aβ42): notably fewer, shorter and ill-developed
growth-promoting effects or cytotoxicity of peptide on its own [3]: did not exhibit general growth-promoting effects or considerable cytotoxicity
Aβ-induced toxicity in U87MG [3]: toxicity-suppressing effects
